Source: patent publication US10869931B2, “Polyethylene glycol-modified angiogenesis inhibitor HM-1 and application thereof” (NANJING ANJI BIOLOGICAL TECHNOLOGY CO.,LTD, priority 2016, dated 2020)
Marks after values point to notes of the source that are not given here. Where no end group is shown, it is not given here.

Legend:
[1] = in vivo
[2] = system: retinal neovascular clusters in OIR C57/B16 mice; test: Retinal blood vessels in OIR mice; format: in vivo, mouse; settings: for Neovascular clusters area: retina evaluated on day 17; for Inhibition rate: neovascular clusters area vs control, day 17
In short: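 C57/B16 pups and mothers were held in 75% oxygen from postnatal day 7 to 12, then returned to room air. On day 13 the PEGylated HM-1 conjugates or saline were given by intravitreal injection; on day 17 retinal vessels were assessed after intracardiac Texas Red-tomato lectin, circulated 5 min.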

[3] = system: choroidal neovascularization in BN rats; test: Laser-induced choroidal neovascularization in BN rats (FFA); format: in vivo, rat
In short: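 Male BN rats (6–8 weeks) received 8 laser photocoagulation spots per eye around the optic disc (647.1 nm, 350 mW, 50 μm, 0.05 s). Confirmed models, 5 per group, were given saline or PEG-modified HM-1 intravitreally once daily for 1 week. FFA was done 3, 7, 14 and 28 days after dosing.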

[4] = system: carrageenan-induced toe swelling in SD rats; test: Carrageenan-induced acute toe swelling in rats; format: in vivo, rat; design: Swelling: unit not given here
In short: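 SD rats dosed with mPEG-HM-1 once daily for 3 days […]; 1 h after last dose, 0.1 mL 1% carrageenan injected subcutaneously into right hind paw. Paw volume measured by liquid displacement at 1, 3, 5 and 7 h; swelling = post- minus pre-inflammation volume (mL).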

[5] = system: IL-1β production by mouse peritoneal macrophages; test: IL-1β production by mouse peritoneal macrophages (ELISA); format: cell-based; settings: 48 h
In short: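 Starch-elicited mouse peritoneal macrophages (2×10^6 cells/mL), adhered 3 h, treated with low, medium and high concentrations of mPEG-HM-1 for 48 h; dexamethasone as positive control. Supernatant IL-1β quantified by sandwich ELISA at OD450.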

[6] = 80 mg/kg once a day for 3 days, 1 h after carrageenan
[7] = 80 mg/kg once a day for 3 days, 3 h after carrageenan
[8] = 80 mg/kg once a day for 3 days, 5 h after carrageenan
[9] = 80 mg/kg once a day for 3 days, 7 h after carrageenan

For “mPEG-ALD20k-Arg-Gly-Ala-Asp-Arg-Ala-Gly-Gly-Gly-Gly-Arg-Gly-Asp ({mPEG‑ALD 20 kDa}-RGADRAGGGGRGD) [mPEG-ALD20k-HM-1]”, the “AUC0-∞” value [1] was 5899.46 ± 6.68 mg/L/h, the CL [1] was 0.215 ± 0.177 mL/min/kg and the “MRT0-∞” value [1] was 18.65 ± 2.57 h. For the same substance, the “T1/2β (half-life)” value [1] was 22.65 ± 0.21 h, the Neovascular clusters area ([2]; 100 μg intravitreal injection on day 13) was 0.095 ± 0.009 mm^2 and the Inhibition rate ([2]; 100 μg intravitreal) was 57.03%**. For the same substance, the “CNV Incidence rate” value ([3]; Day 3 after administration, 100 μg intravitreally once daily for 1 week (Table 53)) was 51.72%, the “leakage Spots #” value ([3]; Day 3 after administration, 100 μg intravitreally once daily for 1 week (Table 53), total spots 290-296 by table) was 150 and the “CNV Incidence rate” value ([3]; Day 7, 100 μg intravitreally once daily for 1 week (Table 53)) was 48.90%. For the same substance, the “leakage Spots #” value ([3]; Day 7, 100 μg intravitreally once daily for 1 week (Table 53), total spots 182-188 by table) was 89, the “CNV Incidence rate” value ([3]; Day 14, 100 μg intravitreally once daily for 1 week (Table 53)) was 45.45% and the “leakage Spots #” value ([3]; Day 14, 100 μg intravitreally once daily for 1 week (Table 53), total spots 132-138 by table) was 60. For the same substance, the “CNV Incidence rate” value ([3]; Day 28, 100 μg intravitreally once daily for 1 week (Table 53)) was 40.85%, the “leakage Spots #” value ([3]; Day 28, 100 μg intravitreally once daily for 1 week (Table 53), total spots 67-71 by table) was 29 and the Swelling ([4]; 40 mg/kg once a day for 3 days, 1 h after carrageenan) was 0.27 ± 0.13. It also gave a Swelling ([4]; 40 mg/kg once a day for 3 days, 3 h after carrageenan) of 0.34 ± 0.16, a Swelling ([4]; 40 mg/kg once a day for 3 days, 5 h after carrageenan) of 0.41 ± 0.14 and a Swelling ([4]; 40 mg/kg once a day for 3 days, 7 h after carrageenan) of 0.35 ± 0.13. The Swelling [4, 6] was 0.25 ± 0.09, the Swelling [4, 7] was 0.32 ± 0.11 and the Swelling [4, 8] was 0.40 ± 0.15. For the same substance, the Swelling [4, 9] was 0.32 ± 0.16, the IL-1β ([5]; 20 μg/mL) was 729.13 ± 13.12 pg/mL and the “Inhibition Rate of IL-1β production” value ([5]; 20 μg/mL) was 20.48%. The IL-1β ([5]; 40 μg/mL) was 628.18 ± 15.34 pg/mL, the “Inhibition Rate of IL-1β production” value ([5]; 40 μg/mL) was 31.49% and the IL-1β ([5]; 80 μg/mL) was 438.93 ± 12.56 pg/mL. For the same substance, the “Inhibition Rate of IL-1β production” value ([5]; 80 μg/mL) was 52.13%.

In the case of “mPEG-ALD40k-Arg-Gly-Ala-Asp-Arg-Ala-Gly-Gly-Gly-Gly-Arg-Gly-Asp ({mPEG‑ALD 40 kDa}-RGADRAGGGGRGD) [mPEG-ALD40k-HM-1]”, the “AUC0-∞” value [1] is reported as 5276.69 ± 9.84 mg/L/h, the CL [1] is reported as 0.108 ± 0.0967 mL/min/kg and the “MRT0-∞” value [1] is reported as 16.52 ± 3.06 h. For the same substance, the “T1/2β (half-life)” value [1] was 43.31 ± 0.22 h, the Neovascular clusters area ([2]; 200 μg intravitreal injection on day 13) was 0.106 ± 0.010 mm^2 and the Inhibition rate ([2]; 200 μg intravitreal) was 52.02%**. For the same substance, the “CNV Incidence rate” value ([3]; Day 3 after administration, 200 μg intravitreally once daily for 1 week (Table 53)) was 52.41%, the “leakage Spots #” value ([3]; Day 3 after administration, 200 μg intravitreally once daily for 1 week (Table 53), total spots 290-296 by table) was 152 and the “CNV Incidence rate” value ([3]; Day 7, 200 μg intravitreally once daily for 1 week (Table 53)) was 50.55%. The “leakage Spots #” value ([3]; Day 7, 200 μg intravitreally once daily for 1 week (Table 53), total spots 182-188 by table) was 92, the “CNV Incidence rate” value ([3]; Day 14, 200 μg intravitreally once daily for 1 week (Table 53)) was 46.97% and the “leakage Spots #” value ([3]; Day 14, 200 μg intravitreally once daily for 1 week (Table 53), total spots 132-138 by table) was 62. For the same substance, the “CNV Incidence rate” value ([3]; Day 28, 200 μg intravitreally once daily for 1 week (Table 53)) was 42.25%, the “leakage Spots #” value ([3]; Day 28, 200 μg intravitreally once daily for 1 week (Table 53), total spots 67-71 by table) was 30 and the Swelling [4, 6] was 0.26 ± 0.14. It also gave a Swelling [4, 7] of 0.35 ± 0.13, a Swelling [4, 8] of 0.43 ± 0.14 and a Swelling [4, 9] of 0.33 ± 0.17. The Swelling ([4]; 160 mg/kg once a day for 3 days, 1 h after carrageenan) was 0.24 ± 0.13, the Swelling ([4]; 160 mg/kg once a day for 3 days, 3 h after carrageenan) was 0.34 ± 0.14 and the Swelling ([4]; 160 mg/kg once a day for 3 days, 5 h after carrageenan) was 0.44 ± 0.15. The Swelling ([4]; 160 mg/kg once a day for 3 days, 7 h after carrageenan) was 0.34 ± 0.15, the IL-1β ([5]; 40 μg/mL) was 742.06 ± 16.59 pg/mL and the “Inhibition Rate of IL-1β production” value ([5]; 40 μg/mL) was 19.07%. For the same substance, the IL-1β ([5]; 80 μg/mL) was 664.40 ± 18.43 pg/mL, the “Inhibition Rate of IL-1β production” value ([5]; 80 μg/mL) was 27.54% and the IL-1β ([5]; 160 μg/mL) was 495.96 ± 10.95 pg/mL. The “Inhibition Rate of IL-1β production” value ([5]; 160 μg/mL) was 45.91%.
